Patent US11517577B2, “Fluorinated bile acid derivatives” (NZP UK LIMITED, priority 2018, dated 2022)

Molecular target: T1, Human Farnesoid X Receptor (NR1H4, FXR) (Homo sapiens, UniProt Q96RI1)
T1 sequence (Q96RI1 1-486): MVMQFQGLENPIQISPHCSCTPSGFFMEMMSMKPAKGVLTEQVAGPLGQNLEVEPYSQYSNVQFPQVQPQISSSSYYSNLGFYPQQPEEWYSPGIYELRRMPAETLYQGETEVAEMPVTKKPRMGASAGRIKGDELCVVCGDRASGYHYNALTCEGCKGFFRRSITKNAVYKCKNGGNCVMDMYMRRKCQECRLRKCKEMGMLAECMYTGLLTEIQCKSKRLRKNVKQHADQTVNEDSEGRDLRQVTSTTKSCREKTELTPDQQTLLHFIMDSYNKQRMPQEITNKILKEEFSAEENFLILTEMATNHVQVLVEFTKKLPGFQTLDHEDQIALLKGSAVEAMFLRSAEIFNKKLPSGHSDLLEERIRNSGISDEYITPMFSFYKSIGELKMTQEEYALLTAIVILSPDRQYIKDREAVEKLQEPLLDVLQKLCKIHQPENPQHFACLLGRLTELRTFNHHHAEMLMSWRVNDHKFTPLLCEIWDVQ
Assay: FXR reporter assay, EC50 and efficacy (Indigo Biosciences luciferase reporter cells)
Assay type: cell-based
Conditions: for Efficacy: maximum point on the dose response curve, GW4064 designated as 100%
Procedure: The compounds of the invention were assayed for agonist activity at the FXR receptor.
Dose-response assays were performed as described in the technical manual of the Human Farnesoid X Receptor (NR1H4, FXR) Reporter Assay System (Indigo Biosciences Human Farnesoid X Receptor (NR1H4, FXR) Reporter Assay System, Technical Manual (version 7.1b), at the World Wide Web (www)indiqobiosciences.com).
FXR reporter cells consisting of an FXR-responsive promoter gene functionally linked to the luciferase gene were defrosted and seeded into a 96-well plate and these cells were immediately dosed with the test compounds at different concentrations (10-0.05 μM) according to the manufacturer's protocol. […] Following this, the induction of luciferase activity, which is the measure of the agonist activity, was quantified by using luminometer (TECAN) according to the manufacturer's protocol.

**Q.** Which results are given for `CC[C@@H]1[C@@H]2[C@@H](F)[C@H](O)CC[C@]2(C)C2CC[C@@]3(C)C(CCC3[C@H](C)CCNC(=O)NS(=O)(=O)c3cccc(F)c3)C2[C@@H]1O` (stereo partly drawn) [Compound 7, N,N′-(3α,7α-Dihydroxyl-4β-fluoro-6α-ethyl-24-nor-5β-cholan-23-yl)-m-fluorobenzene sulfonyl urea]?
**A.** EC50: 38 nM; Efficacy: 131%

**Q.** `CC[C@@H]1[C@@H]2[C@@H](F)[C@H](O)CC[C@]2(C)C2CC[C@@]3(C)C(CCC3[C@H](C)CCNC(=O)NS(=O)(=O)c3ccccc3C)C2[C@@H]1O` (stereo partly drawn) [Compound 5, N,N′-(3α,7α-Dihydroxyl-4β-fluoro-6α-ethyl-24-nor-5β-cholan-23-yl)-o-toluene sulfonyl urea] was tested. Which EC50 did it give?
**A.** 28 nM

**Q.** And the Efficacy?
**A.** 166%

**Q.** What does the source list for `CC[C@@H]1[C@@H]2[C@@H](F)[C@H](O)CC[C@]2(C)C2CC[C@@]3(C)C(CCC3[C@H](C)CCNC(=O)NS(=O)(=O)c3ccc(C)cc3)C2[C@@H]1O` (stereo partly drawn) [Compound 1, N,N′-(3α,7α-Dihydroxyl-4β-fluoro-6α-ethyl-24-nor-5β-cholan-23-yl)-p-toluene sulfonyl urea]?
**A.** EC50: 18 nM; Efficacy: 193%

**Q.** For `CC[C@H]1[C@@H](O)[C@@H]2[C@H](CC[C@]3(C)[C@@H]([C@H](C)CCC(=O)NS(=O)(=O)c4cccc(C(F)(F)F)c4)CC[C@@H]23)[C@@]2(C)CC[C@@H](O)[C@H](F)[C@@H]12` [Compound 19, N-(3α,7α-Dihydroxyl-4β-fluoro-6α-ethyl-5β-cholan-24-oyl)-3-trifluoromethylphenyl sulfonamide], which EC50 is on record?
**A.** 50 nM

**Q.** What about the Efficacy of the same compound?
**A.** 136%

**Q.** `CC[C@H]1[C@@H](O)[C@@H]2[C@H](CC[C@]3(C)[C@@H]([C@H](C)CCC(=O)NS(=O)(=O)C4CC4)CC[C@@H]23)[C@@]2(C)CC[C@@H](O)[C@H](F)[C@@H]12` [Comparative compound B, N-(3α,7α-Dihydroxyl-4β-fluoro-6α-ethyl-5β-cholan-24-oyl)-cyclopropyl sulfonamide, reference compound] was tested. Which EC50 did it give?
**A.** 158 nM

**Q.** And the Efficacy?
**A.** 132%

**Q.** How did the EC50 turn out when `CC[C@H]1[C@@H](O)[C@@H]2[C@H](CC[C@]3(C)[C@@H]([C@H](C)CCC(=O)NS(C)(=O)=O)CC[C@@H]23)[C@@]2(C)CC[C@@H](O)[C@H](F)[C@@H]12` [Comparative compound C, N-(3α,7α-Dihydroxyl-4β-fluoro-6α-ethyl-5β-cholan-24-oyl)-methyl sulfonamide, reference compound] was run?
**A.** 192 nM

**Q.** What about the Efficacy of the same compound?
**A.** 130%

**Q.** For `CC[C@@H]1[C@@H]2[C@@H](F)[C@H](O)CC[C@]2(C)C2CC[C@@]3(C)C(CCC3[C@H](C)CCNC(=O)NS(=O)(=O)c3ccc(OC(F)(F)F)cc3)C2[C@@H]1O` (stereo partly drawn) [Compound 12, N,N′-(3α,7α-Dihydroxyl-4β-fluoro-6α-ethyl-24-nor-5β-cholan-23-yl)-4-(trifluoromethoxy)benzene sulfonyl urea], which EC50 is on record?
**A.** 27 nM

**Q.** And the Efficacy?
**A.** 176%

**Q.** What does the source list for `CC[C@@H]1[C@@H]2[C@@H](F)[C@H](O)CC[C@]2(C)C2CC[C@@]3(C)C(CCC3[C@H](C)CCNC(=O)NS(=O)(=O)c3ccccc3F)C2[C@@H]1O` (stereo partly drawn) [Compound 8, N,N′-(3α,7α-Dihydroxyl-4β-fluoro-6α-ethyl-24-nor-5β-cholan-23-yl)-o-fluorobenzene sulfonyl urea]?
**A.** EC50: 43 nM; Efficacy: 159%

**Q.** `CC[C@@H]1[C@@H]2[C@@H](F)[C@H](O)CC[C@]2(C)C2CC[C@@]3(C)C(CCC3[C@H](C)CCNC(=O)NS(=O)(=O)c3ccc(OC)cc3)C2[C@@H]1O` (stereo partly drawn) [Compound 13, N,N′-(3α,7α-Dihydroxyl-4β-fluoro-6α-ethyl-24-nor-5β-cholan-23-yl)-p-methoxybenzene sulfonyl urea] was tested. Which EC50 did it give?
**A.** 48 nM

**Q.** What about the Efficacy of the same compound?
**A.** 250%

**Q.** For `CC[C@@H]1[C@@H]2[C@@H](F)[C@H](O)CC[C@]2(C)C2CC[C@@]3(C)C(CCC3[C@H](C)CCNC(=O)NS(=O)(=O)c3ccccc3C(F)(F)F)C2[C@@H]1O` (stereo partly drawn) [Compound 11, N,N′-(3α,7α-Dihydroxyl-4β-fluoro-6α-ethyl-24-nor-5β-cholan-23-yl)-o-(trifluoromethyl)benzene sulfonyl urea], which EC50 is on record?
**A.** 123 nM

**Q.** What about the Efficacy of the same compound?
**A.** 104%

**Q.** Which results are given for `CC[C@@H]1[C@@H]2[C@@H](F)[C@H](O)CC[C@]2(C)C2CC[C@@]3(C)C(CCC3[C@H](C)CCNC(=O)NS(=O)(=O)c3cccc(C)c3)C2[C@@H]1O` (stereo partly drawn) [Compound 4, N,N′-(3α,7α-Dihydroxyl-4β-fluoro-6α-ethyl-24-nor-5β-cholan-23-yl)-m-toluene sulfonyl urea]?
**A.** EC50: 23 nM; Efficacy: 148%

**Q.** Which results are given for `CC[C@@H]1[C@@H]2[C@@H](F)[C@H](O)CC[C@]2(C)C2CC[C@@]3(C)C(CCC3[C@H](C)CCNC(=O)NS(=O)(=O)c3ccc(C(F)(F)F)cc3)C2[C@@H]1O` (stereo partly drawn) [Compound 9, N,N′-(3α,7α-Dihydroxyl-4β-fluoro-6α-ethyl-24-nor-5β-cholan-23-yl)-p-(trifluoromethyl)benzene sulfonyl urea]?
**A.** EC50: 50 nM; Efficacy: 158%

**Q.** With `CC[C@H]1[C@@H](O)[C@@H]2[C@H](CC[C@]3(C)[C@@H]([C@H](C)CCC(=O)NS(=O)(=O)c4ccc(F)cc4)CC[C@@H]23)[C@@]2(C)CC[C@@H](O)[C@H](F)[C@@H]12` [Compound 15, N-(3α,7α-Dihydroxyl-4β-fluoro-6α-ethyl-5β-cholan-24-oyl)-p-fluorobenzene sulfonamide] as the compound, how does the EC50 read?
**A.** 38 nM

**Q.** What about the Efficacy of the same compound?
**A.** 98%

**Q.** For `CC[C@@H]1[C@@H]2[C@@H](F)[C@H](O)CC[C@]2(C)C2CC[C@@]3(C)C(CCC3[C@H](C)CCNC(=O)NS(=O)(=O)c3ccc(F)cc3)C2[C@@H]1O` (stereo partly drawn) [Compound 6, N,N′-(3α,7α-Dihydroxyl-4β-fluoro-6α-ethyl-24-nor-5β-cholan-23-yl)-p-fluorobenzene sulfonyl urea], which EC50 is on record?
**A.** 32 nM

**Q.** What about the Efficacy of the same compound?
**A.** 187%

**Q.** Which results are given for `CC[C@H]1[C@@H](O)C2C3CCC([C@H](C)CCNC(=O)NS(=O)(=O)c4ccccc4)[C@@]3(C)CCC2[C@@]2(C)CC[C@@H](O)C[C@@H]12` (stereo partly drawn) [Comparative compound A, N,N′-(3α,7α-Dihydroxyl-6α-ethyl-24-nor-5β-cholan-23-yl)-benzene sulfonyl urea, reference compound]?
**A.** EC50: 32 nM; Efficacy: 147%

**Q.** `CC[C@H]1[C@@H](O)[C@@H]2[C@H](CC[C@]3(C)[C@@H]([C@H](C)CCC(=O)NS(=O)(=O)c4ccccc4F)CC[C@@H]23)[C@@]2(C)CC[C@@H](O)[C@H](F)[C@@H]12` [Compound 17, N-(3α,7α-Dihydroxyl-4β-fluoro-6α-ethyl-5β-cholan-24-oyl)-o-fluorophenyl sulfonamide] was tested. Which EC50 did it give?
**A.** 34 nM

**Q.** And the Efficacy?
**A.** 121%

**Q.** Which results are given for `CC[C@@H]1[C@@H]2[C@@H](F)[C@H](O)CC[C@]2(C)C2CC[C@@]3(C)C(CCC3[C@H](C)CCNC(=O)NS(=O)(=O)c3ccc(C(C)(C)C)cc3)C2[C@@H]1O` (stereo partly drawn) [Compound 3, N,N′-(3α,7α-Dihydroxyl-4β-fluoro-6α-ethyl-24-nor-5β-cholan-23-yl)-4-(tert-butyl) benzene sulfonyl urea]?
**A.** EC50: 19 nM; Efficacy: 151%

**Q.** What does the source list for `CC[C@H]1[C@@H](O)[C@@H]2[C@H](CC[C@]3(C)[C@@H]([C@H](C)CCC(=O)NS(=O)(=O)c4cccc(F)c4)CC[C@@H]23)[C@@]2(C)CC[C@@H](O)[C@H](F)[C@@H]12` [Compound 16, N-(3α,7α-Dihydroxyl-4β-fluoro-6α-ethyl-5β-cholan-24-oyl)-m-fluorophenyl sulfonamide]?
**A.** EC50: 46 nM; Efficacy: 143%
